The target of the test is Factor D (Homo sapiens (Human), UniProt P00746). In words: Factor D esterolytic assay (Z-Lys-SBzl substrate, DTNB, 405 nm). The class given is biochemical. Particulars: Z-Lys-SBzl 1.29 mM, pH 7.5, 10% DMSO, tested a minimum of three times, read-out: Measured Ki (IC50) Value for Compounds: IC50. Put shortly: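 Human Factor D ([…]) with 1.29 mM Z-Lys-SBzl in 100 mM HEPES, 500 mM NaCl, pH 7.5, 10% DMSO; substrate added immediately or after room-temperature preincubation. Released thiol reacted with DTNB, rate followed at 405 nm for 600 sec, 690 nm background subtracted. IC50 from percent inhibition versus uninhibited rate, n≥3.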
Sequence of Factor D (P00746 26-253): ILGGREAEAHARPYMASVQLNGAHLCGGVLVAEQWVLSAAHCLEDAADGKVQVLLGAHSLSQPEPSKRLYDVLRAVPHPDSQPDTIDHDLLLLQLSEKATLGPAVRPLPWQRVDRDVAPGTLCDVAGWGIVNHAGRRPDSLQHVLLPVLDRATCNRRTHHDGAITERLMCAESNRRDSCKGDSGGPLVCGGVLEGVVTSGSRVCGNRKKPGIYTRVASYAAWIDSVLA

Take `N#Cc1ccc(CC(=O)O)c(OCc2cc(-c3ccnc(CN)c3F)c3occc3c2)c1` [Compound 435b, 2-(2-((7-(2-(aminomethyl)-3-fluoropyridin-4-yl)benzofuran-5-yl)methoxy)-4-cyanophenyl)acetic acid]: the IC50 was below 1000 nM.

As to `Cc1cc2cc(COc3ccccc3CC(=O)O)cc(-c3ccnc(CN)c3F)c2o1` [Compound 113c, 2-(2-((7-(2-(aminomethyl)-3-fluoropyridin-4-yl)-2-methylbenzofuran-5-yl)methoxy)phenyl)acetic acid], the IC50 is below 1000 nM.

Take `COc1ccc(OCc2cc(-c3cccc(CN)c3)c3ccn(C(C)C)c3c2)c(CC(=O)O)c1` [Compound 493b, 2-(2-((4-(3-(aminomethyl)phenyl)-1-isopropyl-1H-indol-6-yl)methoxy)-5-methoxyphenyl)acetic acid]: the IC50 is below 1000 nM.

For the molecule `NCc1cccc(-c2cc(COc3ccccc3C(NC(=O)C3CC3)C(=O)O)cc3ccoc23)c1` (centres unmarked) [Compound 223e, 2-(2-((7-(3-(aminomethyl)phenyl)benzofuran-5-yl)methoxy)phenyl)-2-(cyclopropanecarboxamido)acetic acid], the IC50 is below 1000 nM.

Turning to `NCc1nccc(-c2cc(COc3ccccc3CC(=O)O)cc3cc(F)oc23)c1F` [Compound 300c, 2-(2-((7-(2-(aminomethyl)-3-fluoropyridin-4-yl)-2-fluorobenzofuran-5-yl)methoxy)phenyl)acetic acid], the IC50 is below 1000 nM.

Consider `NCc1c(F)ccc(-c2cc(COc3ccccc3CC(=O)O)cc3ccoc23)c1F` [Compound 75c, 2-(2-((7-(3-(aminomethyl)-2,4-difluorophenyl)benzofuran-5-yl)methoxy)phenyl)acetic acid], for which the IC50 is below 1000 nM.

Take `NCc1cccc(-c2cc(C(=O)Nc3ccccc3CC(=O)O)cc3ccoc23)c1` [Compound 15d, 2-(2-(7-(3-(aminomethyl)phenyl)benzofuran-5-carboxamido)phenyl)acetic acid]: the IC50 was below 1000 nM.

For `CC(O)c1cc2cc(COc3ccccc3CC(=O)O)cc(-c3cccc(CN)c3)c2o1` (centres unmarked) [Compound 98e, 2-(2-((7-(3-(aminomethyl)phenyl)-2-(1-hydroxyethyl)benzofuran-5-yl)methoxy)phenyl)acetic acid], the IC50 was below 1000 nM.

Turning to `COCc1cc2cc(COc3cc(C(N)=O)ccc3CC(=O)O)cc(-c3cccc(CN)c3)c2o1` [Compound 309h, 2-(2-((7-(3-(aminomethyl)phenyl)-2-(methoxymethyl)benzofuran-5-yl)methoxy)-4-carbamoylphenyl)acetic acid], the IC50 is below 1000 nM.

In the case of `COCc1cc2cc(COc3ccc(F)cc3CC(=O)O)cc(-c3ccnc(CN)c3F)c2o1` [Compound 528d], the IC50 is below 1000 nM.

As for `COCc1cc2cc(COc3cc(C)ccc3CC(=O)O)cc(-c3cccc(CN)c3)c2o1` [Compound 415e, 2-(2-((7-(3-(aminomethyl)phenyl)-2-(methoxymethyl)benzofuran-5-yl)methoxy)-4-methylphenyl)acetic acid], the IC50 was below 1000 nM.

`NC(=O)c1cccc(-c2cc(COc3ccccc3CC(=O)O)cc3ccoc23)c1` [Compound 85d, 2-(2-((7-(3-carbamoylphenyl)benzofuran-5-yl)methoxy)phenyl)acetic acid]: the IC50 is 1000 to 10000 nM.

Turning to `NCc1cccc(-c2cc(COc3ccccc3CC(=O)O)cc3cc(Cc4ccccc4)oc23)c1` [Compound 377e, 2-(2-((7-(3-(aminomethyl)phenyl)-2-benzylbenzofuran-5-yl)methoxy)phenyl)acetic acid], the IC50 was below 1000 nM.

Take `COc1ccc(CC(=O)O)c(OCc2cc(-c3cccc(CN)c3)c3occc3c2F)c1` [Compound 384c, 2-(2-((7-(3-(aminomethyl)phenyl)-4-fluorobenzofuran-5-yl)methoxy)-4-methoxyphenyl)acetic acid]: the IC50 is below 1000 nM.

In the case of `Cc1coc2c(-c3cccc(CN)c3)cc(COc3ccccc3CC(=O)O)cc12` [Compound 382h, 2-(2-((7-(3-(aminomethyl)phenyl)-3-methylbenzofuran-5-yl)methoxy)phenyl)acetic acid], the IC50 was below 1000 nM.

Consider `CC(C)n1ccc2c(-c3cccc(CN)c3)cc(COc3ccccc3CC(=O)O)cc21` [Compound 109g, 2-(2-((4-(3-(aminomethyl)phenyl)-1-isopropyl-1H-indol-6-yl)methoxy)phenyl)acetic acid], for which the IC50 was below 1000 nM.

On to `NCc1ccc(-c2cc(COc3ccccc3CC(=O)O)cc3ccoc23)o1` [Compound 207c, 2-(2-((7-(5-(aminomethyl)furan-2-yl)benzofuran-5-yl)methoxy)phenyl)acetic acid], for which the IC50 was below 1000 nM.

On to `NCc1cccc(-c2nc(C(=O)Nc3cccnc3CC(=O)O)c3cccn3n2)c1` [Compound 157d, 2-(3-(2-(3-(aminomethyl)phenyl)pyrrolo[2,1-f][1,2,4]triazine-4-carboxamido)pyridin-2-yl)acetic acid], for which the half-inhibitory concentration (IC50) is above 10000 nM.

Turning to `NCc1cc(-c2cc(COc3ccccc3CC(=O)O)nc3ccoc23)ccn1` [Compound 168c, 2-(2-((7-(2-(aminomethyl)pyridin-4-yl)furo[3,2-b]pyridin-5-yl)methoxy)phenyl)acetic acid], the IC50 is below 1000 nM.

Turning to `NCc1cccc(-c2cc(COc3ccc(F)cc3CC(=O)O)c(F)c3ccoc23)c1F` [Compound 387b, 2-(2-((7-(3-(aminomethyl)-2-fluorophenyl)-4-fluorobenzofuran-5-yl)methoxy)-5-fluorophenyl)acetic acid], the IC50 is below 1000 nM.

Consider `COCc1cc2cc(COc3cc(NC(C)=O)ccc3CC(=O)O)cc(-c3cccc(CN)c3)c2o1` [Compound 417e, 2-(4-acetamido-2-((7-(3-(aminomethyl)phenyl)-2-(methoxymethyl)benzofuran-5-yl)methoxy)phenyl)acetic acid], for which the IC50 was below 1000 nM.

As for `NCc1cccc(-c2cc(COc3ccc(CO)cc3CC(=O)O)cc3ccoc23)c1` [Compound 254c, 2-(2-((7-(3-(aminomethyl)phenyl)benzofuran-5-yl)methoxy)-5-(hydroxymethyl)phenyl)acetic acid], the IC50 was below 1000 nM.

Consider `NCc1cccc(-c2cc(COc3ccccc3CC(=O)O)nc3ccoc23)c1F` [Compound 134b, 2-(2-((7-(3-(aminomethyl)-2-fluorophenyl)furo[3,2-b]pyridin-5-yl)methoxy)phenyl)acetic acid], for which the IC50 was below 1000 nM.

Regarding `COCc1cc2cc(COc3ccccc3CC(=O)O)cc(-c3cccc(C(N)CF)c3)c2o1` (single isomer, unassigned; (+)) [Compound 278e, (+)-2-(2-((7-(3-(1-amino-2-fluoroethyl)phenyl)-2-(methoxymethyl)benzofuran-5-yl)methoxy)phenyl)acetic acid], the IC50 was below 1000 nM.

`NCc1ccc(CC(=O)O)c(OCc2cc(-c3cccc(CN)c3F)c3occc3c2)c1` [Compound 456c, 2-(4-(aminomethyl)-2-((7-(3-(aminomethyl)-2-fluorophenyl)benzofuran-5-yl)methoxy)phenyl)acetic acid]: the IC50 was below 1000 nM.

`NCc1cccc(-c2cc(COc3cc(C4CC4)ccc3CC(=O)O)cc3ccoc23)c1` [Compound 203c, 2-(2-((7-(3-(aminomethyl)phenyl)benzofuran-5-yl)methoxy)-4-cyclopropylphenyl)acetic acid]: the IC50 was below 1000 nM.

Regarding `NCc1cccc(-c2nc(C(=O)Nc3ccccc3CC(=O)O)cc3ccncc23)c1` [Compound 35f, 2-(2-(1-(3-(aminomethyl)phenyl)-2,7-naphthyridine-3-carboxamido)phenyl)acetic acid], the IC50 fell in the range of 1000 to 10000 nM.

Turning to `Cc1ccc(CC(=O)O)c(OCc2cc(-c3ccnc(CN)c3)c3occ(C(F)(F)F)c3c2)c1` [Compound 379c, 2-(2-((7-(2-(aminomethyl)pyridin-4-yl)-3-(trifluoromethyl)benzofuran-5-yl)methoxy)-4-methylphenyl)acetic acid], the IC50 was below 1000 nM.

As to `NCc1cccc(-c2cc(COc3ccccc3CC(=O)O)cc3oc(Cl)cc23)c1` [Compound 225h, 2-(2-((4-(3-(aminomethyl)phenyl)-2-chlorobenzofuran-6-yl)methoxy)phenyl)acetic acid], the IC50 was below 1000 nM.

For the molecule `NCc1cccc(-c2cn3cccc3c(C(=O)Nc3ccccc3CC(=O)O)n2)c1` [Compound 93h, 2-(2-(3-(3-(aminomethyl)phenyl)pyrrolo[1,2-a]pyrazine-1-carboxamido)phenyl)acetic acid], the IC50 is below 1000 nM.

Regarding `Cc1ccc(CC(=O)O)c(OCc2cc(-c3cccc(CN)c3F)c3occ(C(F)(F)F)c3c2)c1` [Compound 349b, 2-(2-((7-(3-(aminomethyl)-2-fluorophenyl)-3-(trifluoromethyl)benzofuran-5-yl)methoxy)-4-methylphenyl)acetic acid], the IC50 is below 1000 nM.

For `NCc1cccc(-c2cc(C(=O)Nc3ccccc3CC(=O)O)cc3ccccc23)c1` [Compound 18f, 2-(2-(4-(3-(aminomethyl)phenyl)-2-naphthamido)phenyl)acetic acid], the IC50 is below 1000 nM.

As for `NCc1cccc(-c2nc(C(=O)Nc3ccccc3CC(=O)O)nc3c2COC3)c1` [Compound 48h, 2-(2-(4-(3-(aminomethyl)phenyl)-5,7-dihydrofuro[3,4-d]pyrimidine-2-carboxamido)phenyl)acetic acid], the IC50 is 1000 to 10000 nM.

Take `NCc1cccc(-c2cc(COc3ccccc3CC(=O)O)cc3cc(C4CCCC4)oc23)c1` [Compound 82f, 2-(2-((7-(3-(aminomethyl)phenyl)-2-cyclopentylbenzofuran-5-yl)methoxy)phenyl)acetic acid]: the IC50 was below 1000 nM.

As to `COc1ccc(CC(=O)O)c(OCc2cc(-c3ccnc(CN)c3F)c3ccn(C(C)C)c3c2)c1` [Compound 448c, 2-(2-((4-(2-(aminomethyl)-3-fluoropyridin-4-yl)-1-isopropyl-1H-indol-6-yl)methoxy)-4-methoxyphenyl)acetic acid], the IC50 is below 1000 nM.

By IC50 is commonly meant the point on the concentration scale where inhibition reaches its midpoint.

Source of the values: patent US11370774B2, “Substituted benzofuran, benzopyrrole, benzothiophene, and structurally related complement inhibitors” (BioCryst Pharmaceuticals, Inc., priority 2018, dated 2022).
